The target in assay [1] is T1, B2AR (Homo sapiens, UniProt P07550). As to the kind of experiment: biochemical.
For assay [2], the target named is T1, B2AR. The experiment in a line: Heterologous competition radioligand binding assay ([3H]-DHA) on SNAP-B2AR HEK membranes. To be noted: equilibrium competition binding with 1 nM [3H]-DHA, 120 min RT, mean ± SD.
Excerpt: Radioactivity was quantified using single photon counting on a TopCount NXT microplate scintillation and luminescence counter (Packard).
The target of assay [3] is T1, B2AR.
The target in assay [4] is T1, B2AR. The experiment in a line: Saturation binding of [3H]-DHA on SNAP-B2AR HEK membranes. Set-up: membranes prepared from it. To be noted: 5 µg SNAP-B2AR HEK membranes, specific binding; Mean ± SD, n=3; read-out: equilibrium dissociation constant (KD).
A further assay has as its target B1AR (Homo sapiens, UniProt P08588). The experiment in a line: Real-time cAMP inhibition assay in SNAP-B1AR-EPAC HEK cells. The following applies: SNAP-B1AR-EPAC HEK cells stimulated with 50 nM Isoproterenol for 10 min, compound for additional 40 min, AUC of EPAC FRET ratio; mean ± SD.

Structures can show the parent of a compound that is named as a salt. Where two headings read alike, the source gives them in different places.

Broadly, the Ki is the equilibrium dissociation constant of an inhibitor or competing ligand from its target. The low end stands for tighter binding, the high end for weaker binding. In general, pKi refers to −log10 of the Ki, conventionally taken in molar units. Read a low pKi as a high Ki. The Kd is the constant that tells how readily two partners part at equilibrium. The pIC50 is the negative decadic logarithm of the IC50, by convention in mol/L.

Sequence of B1AR (P08588 whole entry): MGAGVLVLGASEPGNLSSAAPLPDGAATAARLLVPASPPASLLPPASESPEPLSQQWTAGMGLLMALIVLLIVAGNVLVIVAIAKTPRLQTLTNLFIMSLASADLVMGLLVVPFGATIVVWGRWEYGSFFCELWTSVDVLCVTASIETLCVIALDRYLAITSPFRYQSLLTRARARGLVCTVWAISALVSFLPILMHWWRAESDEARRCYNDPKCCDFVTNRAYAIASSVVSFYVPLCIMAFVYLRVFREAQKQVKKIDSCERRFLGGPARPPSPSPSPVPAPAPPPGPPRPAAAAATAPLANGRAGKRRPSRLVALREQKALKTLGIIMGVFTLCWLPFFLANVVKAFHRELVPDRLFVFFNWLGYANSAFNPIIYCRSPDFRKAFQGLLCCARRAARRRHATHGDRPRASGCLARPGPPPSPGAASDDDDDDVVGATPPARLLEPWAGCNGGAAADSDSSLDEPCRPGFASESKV

As to `COc1ccc(-c2cc(F)cc3c2OC(CN)C3)cn1` (stereo not drawn) [Compound 6, 1-[5-fluoro-7-(6-methoxypyridin-3-yl)-2,3-dihydro-1-benzofuran-2-yl]methanamine], the Ki on B2AR [1] was 100 to 1000 nM.

At B2AR [2], “5-[2-(aminomethyl)-2,3-dihydro-1-benzofuran-7-yl]pyridin-2-amine [Compound 5]” returned a pKi of 5.5 ± 0.1. Besides, affinity at B2AR [3] was put at a Ki of 2510 nM.

Take `CCCc1ccccc1OC[C@@H](O)CNC(C)C` [[^3H]-DHA, Dihydroalprenolol Hydrochloride, Levo-[Ring, Propyl-3H(N)]-]: the Kd on B2AR [4] is 0.3 ± 0.1 nM. Consider “4-[2-(aminomethyl)-2,3-dihydro-1-benzofuran-7-yl]benzamide [Compound 7]”, for which, at B1AR, the pIC50 worked out at 4.6 ± 0.5. At B2AR [2], this compound showed a negative logarithm of the Ki (pKi) of 6.0 ± 0.1. On B2AR [3], this compound had a Ki of 1260 nM. Take `NCC1Cc2cccc(-c3ccc(O)cc3)c2O1` (stereo not drawn) [Compound 4, 4-[2-(aminomethyl)-2,3-dihydro-1-benzofuran-7-yl]phenol]: the Ki on B2AR [1] lay in the range of 100 to 1000 nM. The same measure, in the same setting: then `NCC1Cc2cccc(-c3ccc(O)c(F)c3)c2O1` (stereo not drawn) [Compound 8, 4-[2-(aminomethyl)-2,3-dihydro-1-benzofuran-7-yl]-2-fluorophenol], with 100 to 1000 nM.

The values are drawn from EP3878447A1, “BETA ADRENERGIC RECEPTOR ANTAGONISTS” (InterAx Biotech AG, priority 2020, dated 2021).
